From patent US6133304A, “ACE inhibitor-MMP inhibitor combinations” (priority 2000, dated 2000)
One block for each compound: values may come before it.

Assays:
[1] = tested on: spontaneously hypertensive heart failure (SHHF) rats; experiment: previous 4-month experiment in SHHF rats; format: in vivo, rat; conditions: for cardiac dilation, in words / left ventricular (LV) systolic function, in words: 4 months
[2] = tested on: spontaneously hypertensive heart failure (SHHF) rats; experiment: 8-month progression study in SHHF rats (Example 1); format: in vivo, rat; conditions: for LVEDP (left ventricular end-diastolic pressure) / LVESP (left ventricular end-systolic pressure) / LVV-OP: SHHF rats, 8 months in diet; for LVEDP (left ventricular end-diastolic pressure) / LVESP (left ventricular end-systolic pressure): PD 166793 5 mg/kg/day, quinapril 10 mg/kg/day or both; for LVV-OP: left ventricular pressure volume relations, KCl arrested heart
Experimental: Five groups of rats (n=14 per group) were tested: 17-month-old normotensive Fischer control Rats (F-1 7); vehicle treated 17-month-old SHHF Rats (SHHF-17); PD 166793-0000 (Lot Y) SHHF Rats (SHHF-793); Quinapril (PD 109452-0002, Lot Y) SHHF Rats (SHHF-Q); PD 166793 +Quinapril SHHF Rats (SHHF-793Q). Naive Fischer rats were acclimatized 2 weeks prior to testing. All SHHF rats were maintained in-house, administered drug for 8 months, and then cardiovascular tests were performed and tissue samples taken. The primary endpoint for the study was the prevention of cardiac dilation as determined by left ventricular pressure volume relations in the excised KCI arrested heart.
Drug Administration: All SHHF rats were fed powdered rat chow for 1 week prior to drug administration, and daily food consumption was measured by weighing the foodcups. Drug was added to powdered rat chow so that rats consumed their daily dose of PD 166793 (5 mg/kg/day), quinapril (10 mg/kg/day), or both drugs in combination. Food consumption was monitored twice weekly.
Terminal Cardiovascular Test: Rats were anesthetized with isoflurane for terminal testing. Isoflurane was administered using a mask until the rats are anesthetized and a tracheotomy performed. The rats were respired using a ventilator (A.D.S. 1000, Engler Engineering Corp., Hialeah, Fla.). Cardiac function was assessed in closed-chest rats by measuring LV dP/dt, LV end-diastolic pressure (EDP), heart rate, and aortic blood pressure using a Millar pressure transducer inserted through the right carotid. Physiological data was recorded at 500 Hz, and a logging rate of 5 seconds was used to average data. […] Baseline measurements were made when the rats reached a stable plateau of anesthesia. Normotensive rats had their blood pressure increased by partial occlusion of the aorta so that cardiovascular function could be assessed at a pressure of 180 mmHg, the projected blood pressure of SHHF rats. Approximately 4 to 5 mL of blood were withdrawn in ice-cold syringes and then transferred to ice-cold EDTA tubes. Blood was centrifuged at 4500 RPM for 10 minutes so that plasma could be stored for drug measurements, and measuring collagen breakdown products. The heart was arrested with KCl and rapidly excised. A glass cannula was inserted through the aorta into the LV chamber, and secured into place by a ligature around the atrio-ventricular groove. Cardiac dilation was measured by generating left ventricular pressure volume (PV) curves. The PV curves was generated by evacuating the LV of saline and then filling the LV at a fixed rate using a programmable pump set at a 1 mL/min flow rate. The PV curves were recorded on a Po-Ne-Mah digital data acquisition system. A 2 to 3 mm cross-section of the heart was removed (at the level of the papillary muscles). The remainder of the heart was rapidly divided into RV and LV tissue that was frozen in liquid N2 for subsequent weighing and biochemical analysis. The cross-sections were fixed in buffered formalin for histology. This procedure will allow LV, and RV weights to be determined and hypertrophy to be assessed.

[3] = tested on: pigs subjected to rapid pacing; experiment: rapid-paced pig model of heart failure (Example 2); format: in vivo; conditions: for LV End-Systolic Pressure / Pulmonary Vascular Resistance / Systemic Vascular Resistance / Plasma Norepinephrine: Day 21 of pacing, 793 2 mg/kg/day PO, F […] BID PO; for LV End-Systolic Pressure / Pulmonary Vascular Resistance / Systemic Vascular Resistance: pacer off; for LV End-Systolic Pressure / Plasma Norepinephrine: spread printed in the next line; for Pulmonary Vascular Resistance / Systemic Vascular Resistance: spread printed in the next lines; for LV end-diastolic dimension (dilation), in words / LV wall stress, in words: echocardiography, 3-week pacing period
fibroblast = conditions: tissue culture cells; cited from earlier work
[4] = PD 166793 plasma levels in SHHF rats (Example 1); format: in vivo; conditions: rat, po, 5 mg/kg/day PD 166793 in diet, 8 months
Experimental: Drug Administration: […] Food consumption was monitored twice weekly. Terminal Cardiovascular Test: Rats were anesthetized with isoflurane for terminal testing. Isoflurane was administered using a mask until the rats are anesthetized and a tracheotomy performed. The rats were respired using a ventilator ([…] Engineering Corp., Hialeah, Fla.). Cardiac function was assessed in closed-chest rats by measuring LV dP/dt, LV end-diastolic pressure (EDP), heart rate, and aortic blood pressure using a Millar pressure transducer inserted through the right carotid. Physiological data was recorded at 500 Hz, and a logging rate of 5 seconds was used to average data. […] Baseline measurements were made when the rats reached a stable plateau of anesthesia. […] Approximately 4 to 5 mL of blood were withdrawn in ice-cold syringes and then transferred to ice-cold EDTA tubes. […] The heart was arrested with KCl and rapidly excised. A glass cannula was inserted through the aorta into the LV chamber, and secured into place by a ligature around the atrio-ventricular groove. Cardiac dilation was measured by generating left ventricular pressure volume (PV) curves. […] The PV curves were recorded on a Po-Ne-Mah digital data acquisition system. […] This procedure will allow LV, and RV weights to be determined and hypertrophy to be assessed.

in vivo = conditions: pig, po, 2 mg/kg/day
MMP-3 (stromelysin) = MMP-3 (stromelysin) (Homo sapiens, UniProt P08254); experiment: thiopeptolide substrate hydrolysis assay, MMP-3; format: biochemical; conditions: pH 6.0, 22° C., read-out: IC50 MMP3
Experimental: The assays measure the amount by which a test compound reduces the hydrolysis of a thiopeptolide substrate caused by a matrix metalloproteinase enzyme.
Thiopeptolide substrates show virtually no decomposition or hydrolysis in the absence of a matrix metalloproteinase enzyme. A typical thiopeptolide substrate commonly utilized for assays is Ac-Pro-Leu-Gly-thioester-Leu-Leu-Gly-O Et. […] Assays are carried out with and without matrix metalloproteinase inhibitor compounds, and the amount of hydrolysis is compared for a determination of inhibitory activity of the test compounds.

[5] = relative to untreated rapid-paced pigs, FIG. 5

MMP-3 (stromelysin), sequence (P08254 100-272 limits assumed): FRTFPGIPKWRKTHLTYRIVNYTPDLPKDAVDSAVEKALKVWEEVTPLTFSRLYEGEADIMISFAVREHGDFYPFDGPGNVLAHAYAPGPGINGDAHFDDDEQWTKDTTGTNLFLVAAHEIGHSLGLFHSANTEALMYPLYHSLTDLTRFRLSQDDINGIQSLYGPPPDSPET

SMILES: CCOC(=O)[C@H](CCc1ccccc1)N[C@@H](C)C(=O)N1Cc2ccccc2C[C@H]1C(=O)O [quinapril]
cardiac dilation, in words [1]: A similar effect was also observed
left ventricular (LV) systolic function, in words [1]: A similar effect was also observed
LVEDP (left ventricular end-diastolic pressure) [2]: 17 ± 4 mmHg
LVESP (left ventricular end-systolic pressure) [2]: 190 ± 7 mmHg
LVV-OP [2]: 603 ± 99 µL
LV weight, in words ([2]; compared to the vehicle control group): reduced

SMILES: CCC(=O)O[C@@H](O[P@](=O)(CCCCc1ccccc1)CC(=O)N1C[C@H](C2CCCCC2)C[C@H]1C(=O)O)C(C)C [fosinopril]
LV End-Systolic Pressure [3]: 100 mmHg
Pulmonary Vascular Resistance [3]: 266 dynes*s*cm^-5
Systemic Vascular Resistance [3]: 1529 dynes*s*cm^-5
Plasma Norepinephrine [3]: 618 pg/mL
systolic function, slope of circumferential velocity over end-systolic stress relation (Vcfc-ES Stress), in words ([3]; compared to nontreated rapid-paced animals, FIG. 4): significantly improved systolic function
LV end-diastolic dimension (dilation), in words [3]: reduce wall stress and end diastolic dimension
LV wall stress, in words [3]: reduce wall stress
LV end-diastolic dimension (dilation), in words ([3]; listed as Fosinopril): more effective than the PD 166793 in reducing dilation
systolic function measured as preload recruitable stroke work (PRSW), in words ([3]; rapid-paced pigs, FIG. 3): improved systolic function to the greatest extent

SMILES: NNC(=O)c1ccccc1 [Benzoic hydrazide, benzoic hydrazide]
collagen synthesis, in words (fibroblast): suppress collagen synthesis
fibroblast proliferation, in words (fibroblast): suppress collagen synthesis and fibroblast proliferation

concentration at 5840 h [4]: 50.1 ± 7.1 µg/mL
concentration at 1 h (in vivo): 10.8 ± 1.2 µg/mL
SMILES: CC(C)C(NS(=O)(=O)c1ccc(-c2ccc(Br)cc2)cc1)C(=O)O (stereo not shown) [PD 166793, 2-(4'-bromobiphenyl-4-sulfonylamino)-3-methyl-butyric acid]
LV End-Systolic Pressure [3]: 110 mmHg
Pulmonary Vascular Resistance [3]: 417 dynes*s*cm^-5
Systemic Vascular Resistance [3]: 2784 dynes*s*cm^-5
Plasma Norepinephrine [3]: 736 pg/mL
LV end-diastolic dimension (dilation), in words [3]: reduce wall stress and end diastolic dimension
LV wall stress, in words [3]: reduce wall stress
LV chamber stiffness, in words [3, 5]: increased both LV chamber stiffness and myocardial stiffness
myocardial stiffness, in words [3, 5]: increased both LV chamber stiffness and myocardial stiffness
mechanism (vasodilator, anti-hypertrophic), in words [1]: neither a vasodilator, nor an anti-hypertrophic
cardiac dilation, in words [1]: significantly reducing cardiac dilation
left ventricular (LV) systolic function, in words [1]: maintaining left ventricular (LV) systolic function
LVEDP (left ventricular end-diastolic pressure) [2]: 18 ± 3 mmHg
LVESP (left ventricular end-systolic pressure) [2]: 188 ± 8 mmHg
LVV-OP [2]: 820 ± 58 µL

IC50 (MMP-3 (stromelysin)): 0.02 µM
SMILES: CC(C)CC(CC(=O)NO)C(=O)N[C@@H](CC(C)C)C(=O)N[C@@H](Cc1ccccc1)C(N)=O (stereo partly shown) [U24522]
